Numbered stars: 1 amine (or outer) side, 2 acyl side, 3 side chain; on linkers, the order of the positions; unused ones are H or OH. Bridge positions count the residues as written; N and C are the ends. Square brackets hold non-standard residues; d marks the D form. Peptide text beside a SMILES is read from it. * marks the point of attachment. Orn(4R-OH,5R-OH) = O=C([C@H](C[C@@H](O)[C@@H](O)N[*:3])N[*:1])[*:2]; hTyr(3S-OH,4S-OH) = N[C@H](C(=O)O)[C@H](O)[C@@H](O)c1ccc(O)cc1; Pro(3S-OH,4S-Me) = C[C@H]1CN[C@H](C(=O)O)[C@H]1O; Gln(3R-OH) = NC(=O)C[C@@H](O)[C@H](N)C(=O)O; Hyp = O=C(O)[C@@H]1C[C@@H](O)CN1; X1 = CCC(C)CC(C)CCCCCCCCC(=O)*
Experiments:
red blood cell = test: titration/hemolysis assay (red blood cell lysis); settings: highest drug concentration that did not lyse the red blood cells; 25°C, two hours; range tested 0.39 to 400 µg/ml in 5 percent dextrose
Experimental: Concentration of drug in the range of from 0.39 to 400 µg/ml in 5 percent dextrose and a drug free control were employed.
In carrying out the determination, the assay tubes prepared by mixing together 2 milliliters of appropriate drug dilution and 0.5 milliliter of red blood cell suspension were gently shaken to mix the contents and then the tubes were incubated at 25°C for two hours. At the end of this time, the tubes were examined visually for complete or partial red blood cell hemolysis and compared to a drug free control.

Candida albicans [1] = test: agar dilution assay (MIC), expanded panel of strains; format: cell-based; settings: against 5 of 34 different strains of Candida albicans, 28°C, 48 hours
Experimental: The activity may be seen in an agar dilution assay employing a yeast nitrogen base dextrose agar medium. In carrying out the assay, Compound I was solubilized in 10 percent dimethyl sulfoxide (DMSO) supplemented with one drop of Tween 20. Twofold dilutions were made with sterile distilled water/10 percent DMSO to obtain final drug concentrations in the agar dilution assay plates ranging from 128 to 0.06 µg/ml.
The yeast cultures, maintained in yeast maltose (YM) broth, were transferred to fresh YM medium and incubated overnight at 35°C with shaking (250 rpm). After incubation, each culture was diluted in sterile saline to yield a final concentration of 3x10⁵ to 3x10⁶ colony forming units (CFU)/ml.
Each prepared plate was inoculated using a Denley Multipoint Inoculator (Denley, Sussex, England) which delivers approximately 0.001 milliliter to the agar surface resulting in inoculation of from 3x10² to 3x10³ CFUs. The plates were incubated at 28°C for 48 hours. The minimum inhibitory concentrations (MICs) were recorded as the lowest concentrations of drug showing no growth or less than three CFU/spot.
In a similar assay, Compound I was tested against an expanded panel of 34 different strains of Candida albicans and 13 different strains of Candida parapsilosis.

filamentous fungi = test: disc diffusion antifungal assay, filamentous fungi; format: cell-based; settings: disc diffusion against the listed filamentous fungi; 28°C or 37°C, 24 hours
Experimental: (§1) This may be seen in an antifungal assay employing a disc diffusion method against yeasts and filamentous fungi (molds).
(§2) In the disc diffusion method, seeded assay plates are first prepared in one of the following manners according to the type of organism.
Inocula for filamentous fungi are prepared by scraping the surface of stock plates maintained on potato dextrose agar with a moistened sterile dacron swab. The spores and mycelia are then suspended in 10 milliliters of sterile potato dextrose broth and adjusted to 70 percent transmission at 660 nm.
(§3) For three strains of Candida albicans and one strain of Saccharomyces cerevisiae, sterile saline is employed in place of potato dextrose broth. Assay plates are prepared by dilution the inoculum into appropriate molten agar medium, cooled to 45°C to obtain a final concentration of 4 percent (volume/volume).
(§4) The seeded agar media thus prepared are dispensed into petri dishes for assays (11 milliliters per dish).
The samples to be tested for production of antifungal agent are applied to 6.2 mm. filter paper discs (25 microliter/disc) and air dried at 24°C. When the sample to be tested is a crude broth, it may be centrifuged prior to application. […] Following incubation, the inhibition zones are measured and recorded. […]

yeasts = test: disc diffusion antifungal assay, yeasts; format: cell-based; settings: disc diffusion against the listed yeasts; 28°C or 37°C, 24 hours
Experimental: as §1, §2
Inocula for yeasts are prepared from overnight broth cultures then diluted into potato dextrose […] to a final concentration of either 40 percent or 70 percent transmission at 660 nm.
as §3, §4
The samples to be tested for production of antifungal agent are applied to 6.2 mm. filter paper discs (25 microliter/disc) and air dried at 24°C. When the sample to be tested is a crude broth, it may be centrifuged prior to application. The discs bearing the material to be tested are then applied employing sterile conditions to the seeded assay plates and the samples rewet with 25 percent sterile aqueous dimethylsulfoxide (25 µl/disc). […] Following incubation, the inhibition zones are measured and recorded. […]

Candida albicans [2] = test: mice experimentally infected with Candida albicans; format: in vivo
Description: These properties point to a new antifungal drug with great potential in the therapy of human mycotic infections.

| SMILES | minimum lytic concentration (MLC) (red blood cell) | MIC (Candida albicans [1]) | antifungal properties (inhibition zones) (filamentous fungi) | antifungal properties (inhibition zones) (yeasts) | eradication of Candida albicans from kidneys (Candida albicans [2]; kidneys of experimentally infected mice) | survival of mice infected with Candida albicans (Candida albicans [2]; mice infected with Candida albicans) |
| --- | --- | --- | --- | --- | --- | --- |
| C[C@@H]1[C@H](O)[C@@H](C)/C=C/C=C/C=C/C=C/C=C/C=C/C=C/[C@H](O[C@@H]2O[C@H](C)[C@@H](O)[C@H](N)[C@@H]2O)C[C@@H]2O[C@](O)(C[C@@H](O)C[C@@H](O)[C@H](O)CC[C@@H](O)C[C@@H](O)CC(=O)O[C@H]1C)C[C@H](O)[C@H]2C(=O)O [amphotericin B] | 12.5 µg/mL |  |  |  |  |  |
| CCC(C)CC(C)CCCCCCCCC(=O)N[C@H]1C[C@@H](O)[C@@H](O)NC(=O)[C@@H]2[C@@H](O)[C@@H](C)CN2C(=O)[C@H]([C@H](O)CC(N)=O)NC(=O)[C@H]([C@H](O)[C@@H](O)c2ccc(O)cc2)NC(=O)[C@@H]2C[C@@H](O)CN2C(=O)[C@H]([C@@H](C)O)NC1=O (stereo partly drawn) [Compound I, 1-[(4R, 5R) 4,5-dihydroxy N²-(10,12-dimethyl-1-oxotetradecyl)-L-ornithine]-5-(threo-3-hydroxy-L-glutamine)echinocandin B] (X1-[Orn(4R-OH,5R-OH)]T[Hyp][hTyr(3S-OH,4S-OH)][Gln(3R-OH)][Pro(3S-OH,4S-Me)]; lactam 1-C) |  | > 1 µg/mL | good antifungal properties | good antifungal properties | eradicate Candida albicans from kidneys | significantly prolong the survival |
